The numbers were not newly measured in patent US20220000966A1, “COMPOSITION AND METHOD FOR TREATING THE LUNGS” (priority 2018, published 2022), which cites them from elsewhere.

Read-outs that look alike come from different tables or passages of the source.

Data set [1] deals with human lung epithelial cells (A-549), fibroblasts (HFL1), and lymphoma cells (U-937).
The subject of data set [2] is mice. The following applies: injection.
The subject of data set [3] is Guinea pigs. The following applies: pretreatment.
The target of data set [4] is human TRPM8 (hTRPM8) (Homo sapiens, UniProt Q7Z2W7).
Chain of human TRPM8 (hTRPM8) (Q7Z2W7 whole entry): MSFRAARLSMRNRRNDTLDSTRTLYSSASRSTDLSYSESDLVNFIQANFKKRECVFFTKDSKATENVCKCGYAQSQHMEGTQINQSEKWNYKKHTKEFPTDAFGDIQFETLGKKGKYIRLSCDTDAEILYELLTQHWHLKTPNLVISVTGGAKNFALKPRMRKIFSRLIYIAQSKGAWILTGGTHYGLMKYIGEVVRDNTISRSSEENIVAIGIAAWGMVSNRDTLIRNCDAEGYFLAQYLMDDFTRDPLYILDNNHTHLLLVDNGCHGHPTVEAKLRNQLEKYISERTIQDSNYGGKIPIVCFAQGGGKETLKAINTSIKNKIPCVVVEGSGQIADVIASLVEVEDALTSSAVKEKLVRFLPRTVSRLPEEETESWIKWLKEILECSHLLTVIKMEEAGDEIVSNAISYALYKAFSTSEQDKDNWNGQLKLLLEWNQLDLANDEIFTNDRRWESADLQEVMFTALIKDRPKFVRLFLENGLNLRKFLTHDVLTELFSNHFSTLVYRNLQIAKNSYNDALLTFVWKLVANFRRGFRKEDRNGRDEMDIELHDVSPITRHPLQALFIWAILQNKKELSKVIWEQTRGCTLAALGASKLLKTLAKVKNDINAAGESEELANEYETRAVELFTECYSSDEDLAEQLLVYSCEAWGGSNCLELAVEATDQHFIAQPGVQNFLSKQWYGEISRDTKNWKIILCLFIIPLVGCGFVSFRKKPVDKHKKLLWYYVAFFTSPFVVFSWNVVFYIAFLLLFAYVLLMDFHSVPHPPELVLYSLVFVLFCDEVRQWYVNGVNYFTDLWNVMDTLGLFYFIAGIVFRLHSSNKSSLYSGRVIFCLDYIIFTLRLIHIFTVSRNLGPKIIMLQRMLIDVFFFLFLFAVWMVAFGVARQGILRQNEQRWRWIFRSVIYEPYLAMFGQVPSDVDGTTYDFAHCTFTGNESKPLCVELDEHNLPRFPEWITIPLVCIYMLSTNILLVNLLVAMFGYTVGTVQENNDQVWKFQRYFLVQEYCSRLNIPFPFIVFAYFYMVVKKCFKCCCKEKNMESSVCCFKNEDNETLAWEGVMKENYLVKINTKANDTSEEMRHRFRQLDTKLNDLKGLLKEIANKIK
For data set [5], the system named is patients with steroid-dependent bronchial asthma.
The target of data set [6] is T1, TRPA1 (Homo sapiens, UniProt O75762).
T1 sequence (O75762 whole entry): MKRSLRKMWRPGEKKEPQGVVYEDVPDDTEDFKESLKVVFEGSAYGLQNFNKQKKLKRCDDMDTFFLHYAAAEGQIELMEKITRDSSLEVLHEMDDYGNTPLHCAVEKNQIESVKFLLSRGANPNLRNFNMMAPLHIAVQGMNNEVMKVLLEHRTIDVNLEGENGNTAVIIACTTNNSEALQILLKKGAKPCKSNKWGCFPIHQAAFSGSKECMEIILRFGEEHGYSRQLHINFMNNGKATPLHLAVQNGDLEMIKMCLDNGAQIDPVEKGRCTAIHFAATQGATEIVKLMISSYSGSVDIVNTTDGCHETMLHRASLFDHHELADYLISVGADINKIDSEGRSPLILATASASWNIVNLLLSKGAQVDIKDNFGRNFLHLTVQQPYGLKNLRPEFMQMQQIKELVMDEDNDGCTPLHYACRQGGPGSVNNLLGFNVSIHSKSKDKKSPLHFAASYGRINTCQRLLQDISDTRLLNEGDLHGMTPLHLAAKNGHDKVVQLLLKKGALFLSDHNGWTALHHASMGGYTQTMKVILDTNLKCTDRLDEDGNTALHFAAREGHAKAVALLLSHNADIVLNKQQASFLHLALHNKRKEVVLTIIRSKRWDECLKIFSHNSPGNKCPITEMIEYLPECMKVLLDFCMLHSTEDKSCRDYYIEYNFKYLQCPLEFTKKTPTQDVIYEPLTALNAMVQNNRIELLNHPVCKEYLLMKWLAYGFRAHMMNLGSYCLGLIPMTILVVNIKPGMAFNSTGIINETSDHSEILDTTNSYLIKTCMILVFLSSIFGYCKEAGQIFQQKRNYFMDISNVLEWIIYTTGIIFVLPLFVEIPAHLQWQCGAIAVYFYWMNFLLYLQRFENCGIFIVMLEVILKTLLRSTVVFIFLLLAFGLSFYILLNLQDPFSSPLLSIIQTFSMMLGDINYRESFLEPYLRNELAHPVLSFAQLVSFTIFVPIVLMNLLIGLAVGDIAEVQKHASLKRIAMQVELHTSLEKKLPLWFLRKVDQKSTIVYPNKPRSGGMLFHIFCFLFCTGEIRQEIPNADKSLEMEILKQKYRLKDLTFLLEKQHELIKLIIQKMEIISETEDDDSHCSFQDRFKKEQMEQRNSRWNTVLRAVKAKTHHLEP
For data set [7], the system named is blood monocytes.
Data set [8] relates to human subjects. To be noted: octanol on the neck of human subjects followed by 1,8-cineole.
Data set [9] relates to lymphocytes. To be noted: 1.5 μg/mL.
The test system of data set [10] is patients with reversible obstructive ventilatory disorders.
Data set [11] concerns monocytes.
Data set [12] has as its system leukemia K562 cells. The following applies: in vitro and ex vivo.
The subject of data set [13] is human lung cancer A549.
Data set [14] has as its system airway inflammation in asthma. The following applies: in vivo.
For data set [15] the following is noted: orally 600 mg/day, COPD patients.
Data set [16] deals with particulate air pollution-induced inflammation. The following applies: in vivo.
Data set [17] has as its system primary human bronchial epithelial cells. The following applies: cigarette smoke extract, pretreatment.
In data set [18] the test system is cardiomyocyte.
The subject of data set [19] is rats. To be noted: 50 mg/kg orally each day, smoke 1 hr/day for 56 days.
Data set [20] has as its target T1, TRPA1. The source holds these as a separate data set.
For data set [21] the following is noted: oral administration, healthy subjects.
Data set [22] has as its system patients. The following applies: inhaled.
For data set [23], the system named is human MonoMac6 cells. To be noted: cells pretreated.
[24] abbreviates: 200 mg orally 3 times per day for 12 weeks.
Setting [25] is: patients with bronchial asthma, day 4, 1,8-cineole capsules 200 mg 3 times/day.

Take `COc1ccc2cc3[n+](cc2c1OC)CCc1cc2c(cc1-3)OCO2` [berberine]: the “inhibition of inflammatory agents-induced cytokine production” value in [1] is “dose-dependent and cell type-independent”.

With `CC1=CC(=O)C(C(C)C)=CC1=O` [thymoquinone], the chronic inflammatory changes entry in data set [2] is listed as “reduction”. Further, in data set [3], the TNF-α level entry is “significantly reduced”, the “bronchoalveolar lavage fluid Leukotriene B4 (LTB4) levels” value is recorded as “did not significantly change”, the malondialdehyde level result is listed as “significantly reduced” and the “neutrophil elastase (NE) level” value was “significantly reduced”.

For the compound `CC12CCC(CC1)C(C)(C)O2` [1,8-cineole], in data set [4], the TRPM8 activation result was “activates”. In addition, in data set [5] (setting [24]), the “reduction in daily prednisolone dosage tolerated” value was 36% and the “reduction in daily prednisolone dosage, mean” value is 3.75 mg. Besides, the “patients who achieved a reduction of oral steroids” value in [5] (1,8-cineole group) is listed as “Twelve of 16”. In addition, the “action on hTRPA1” value in [6] was “antagonist”. In addition, in [7] (healthy volunteers, day 4), the “change of LTB4 production from monocytes ex vivo” value is recorded as −57.9% and the “change of PGE2 production from monocytes ex vivo” value is on record as −42.7%. In addition, in [7] (setting [25]), the “change of LTB4 production from monocytes ex vivo” value was −40.3% and the “change of PGE2 production from monocytes ex vivo” value is −31.3%. The irritation of octanol result in data set [8] is “significantly reduced”. For the same compound, in [9], the “inhibition of IL-1β production in lymphocytes” value is given as 84%. Further, in data set [10] (treatment duration of eight weeks), the “change of airway resistance” value is listed as −21%. Also, the “change of airway resistance” value in data set [10] (treatment duration of one week) is given as −23%. In data set [11], the “inhibition of production of TNF-α, IL-1β, LTB4 and TXB2” value was “dose-dependent and highly significant inhibition”.

As to `CCNC(=O)CC[C@H](N)C(=O)O` [L-theanine], the “growth of leukemia K562 cells” value in data set [12] is “significantly suppressed”. In data set [13], the “migration and invasion of A549 cells” value was “significantly inhibited”. The “growth of human lung cancer A549 cells” value in [13] (in vitro and ex vivo) is given as “significantly suppressed”. Besides, in data set [14], the “inflammatory cells in bronchoalveolar lavage fluid (BALF)” value is “dramatically attenuated”; the “production of IgE, MCP-1, IL-4, IL-5, IL-13, TNF-α and INF-γ in BALF” value is recorded as “significantly decreased”.

`CC(=O)N[C@@H](CS)C(=O)O` [N-acetyl cysteine]: the “sputum eosinophil cationic protein concentrations and adhesion of polymorphonuclear leukocytes” value in data set [15] is reported as “reduced”. Moreover, the “particulate air pollution-induced inflammation” value in [16] is listed as “effectively prevented”. Further, the “Ca^2+ influx” value in [17] is given as “prevented”.

For the compound `COc1cc(O)cc(O)c1C(=O)/C=C/c1ccccc1` [cardamonin], the cardiomyocyte constriction result in data set [18] is “nor did it impair”.

In the case of `CC(C)c1ccc(NC(=O)Cn2cnc3c2c(=O)n(C)c(=O)n3C)cc1` [HC-030031], the “Ca^2+ influx” value in data set [17] was “decrease in Ca^2+ influx was similar”.

Turning to epigallocatechin-3-gallate, the “cigarette smoke-induced oxidative stress, neutrophilic inflammation, airway mucus production and collagen deposition” value in data set [19] is “ameliorated”. In data set [3], the TNF-α level entry is reported as “significantly reduced”, the “bronchoalveolar lavage fluid Leukotriene B4 (LTB4) levels” value is on record as “significantly reduced”, the glutathione peroxidase activity entry was “increase” and the “myeloperoxidase in lung tissue homogenate” value was “significantly reduced”. In addition, in data set [3], the “neutrophil elastase (NE) level” value is “significantly reduced” and the superoxide dismutase activity entry is “not significantly affected”.

Regarding `CC1CCC(C(C)C)C(O)C1` (centres unmarked) [menthol, reference compound], in [4], the TRPM8 activation result is on record as “activation”. In data set [6], the TRPA1 activation result is given as “activated”.

Turning to `C=C1CC/C=C(\C)CC[C@@H]2[C@@H]1CC2(C)C` [BCP, β-caryophyllene], in data set [20], the “action on TRPA1” value was “agonist”.

Turning to `N[C@@H](CCC(=O)N[C@@H](CS)C(=O)NCC(=O)O)C(=O)O` [glutathione, γ-L-glutamyl-L-cysteinyl-glycine], the “increase of plasma glutathione levels” value in data set [21] is on record as “ineffective”. In addition, in data set [22], the “FEV1 change from baseline” value is given as −19%, the induced breathlessness entry is recorded as “three”, the induced cough result is recorded as “four” and the “total pulmonary resistance change from baseline” value is “+61%”. In addition, the “cigarette smoke-induced reduction in HDAC levels” value in [23] is recorded as “reversed”. In addition, in data set [23] (cigarette smoke extract), the IL-8 release result was “significantly inhibited”. Further, the “period for which epithelial lung fluid glutathione remained elevated” value (aerosol nebulizer) was 2 h. Besides, the “glutathione epithelial lung fluid concentration” value (aerosol nebulizer, 4 mL of 150 mg/mL over 25 minutes) is “about 337 μM”. Further, the “glutathione concentration increase in epithelial lung fluid” value (intravenously administered 600 mg) is given as “no measurable glutathione concentration increases”.
